# According to patent US20260042731A1, “(2,4-DICHLOROPHENOXY)ACETIC ACID ANALOGS” (CORTEVA AGRISCIENCE LLC, priority 2022, published 2026):
# Like-named read-outs stand apart in the source and are kept apart here.
# Columns and labels:
# Corn (ZEAMX) = experiment: Greenhouse post-emergence mixture trials, percent visual control; assay type: in vivo; settings: ZEAMX, 21 DAA; for plant injury at 560 g/ha / plant injury at 1120 g/ha: Zea mays, post-emergence, 504 h; for plant injury at 560 g/ha: compound 560 g ae/ha
# [1] = system: glyphosate resistant Conyza canadensis (L.) (ERICA), horseweed; experiment: Postemergence herbicide evaluation, growth of Conyza canadensis (ERICA); assay type: in vivo; settings: Erigeron canadensis, post-emergence, percent reduction in plant size relative to untreated control, read-out: Ave. ERICA; for pest or weed control at 280 g/ha: 280 g ae/ha; for pest or weed control at 560 g/ha: 560 g ae/ha
# [2] = system: Ambrosia artemisiifolia (AMBEL), common ragweed; experiment: Postemergence herbicide evaluation, growth of Ambrosia artemisiifolia (AMBEL); assay type: in vivo; settings: Ambrosia artemisiifolia, post-emergence, percent reduction in plant size relative to untreated control, read-out: AVE. AMBEL; for pest or weed control at 280 g/ha: 280 g ae/ha; for pest or weed control at 560 g/ha: 560 g ae/ha
# [3] = Volatility of compounds measured by thermogravimetric analysis (TGA); assay type: physicochemical
# [4] = system: Common Lambsquarters (CHEAL); experiment: Greenhouse post-emergence mixture trials, percent visual control; assay type: in vivo; settings: CHEAL, 21 DAA; for pest or weed control at 560 g/ha / pest or weed control at 1120 g/ha: Chenopodium album, post-emergence, 504 h; for pest or weed control at 1120 g/ha: read-out: % Control
# [5] = system: Amaranthus rudis (AMATA), tall water hemp; experiment: Postemergence herbicide evaluation, growth of Amaranthus rudis (AMATA); assay type: in vivo; settings: Amaranthus tuberculatus, post-emergence, percent reduction in plant size relative to untreated control, read-out: Ave. AMATA; for pest or weed control at 280 g/ha: 280 g ae/ha; for pest or weed control at 560 g/ha: 560 g ae/ha
# [6] = system: Chenopodium album (CHEAL), common lambsquarters; experiment: Postemergence herbicide evaluation, growth of Chenopodium album (CHEAL); assay type: in vivo; settings: Chenopodium album, post-emergence, percent reduction in plant size relative to untreated control, read-out: Ave. CHEAL; for pest or weed control at 280 g/ha: 280 g ae/ha; for pest or weed control at 560 g/ha: 560 g ae/ha
# Velvetleaf (ABUTH) = experiment: Greenhouse post-emergence mixture trials, percent visual control; assay type: in vivo; settings: ABUTH, 21 DAA; for pest or weed control at 560 g/ha / pest or weed control at 1120 g/ha: Abutilon theophrasti, post-emergence, 504 h; for pest or weed control at 560 g/ha: compound 560 g ae/ha; for pest or weed control at 1120 g/ha: compound 1120 g ae/ha, read-out: % Control
# [7] = system: weeds (ABUTH, AMATA, AMBEL, CHEAL, ERICA); experiment: Postemergence herbicide evaluation, overall average % weed control across ABUTH, AMATA, AMBEL, CHEAL, ERICA; assay type: in vivo; settings: post-emergence, average over the five weeds, read-out: Overall Ave % Weed Control; for pest or weed control at 280 g/ha: 280 g ae/ha; for pest or weed control at 560 g/ha: 560 g ae/ha
# [8] = system: Abutilon theophrasti (ABUTH), velvetleaf; experiment: Postemergence herbicide evaluation, growth of Abutilon theophrasti (ABUTH); assay type: in vivo; settings: Abutilon theophrasti, post-emergence, percent reduction in plant size relative to untreated control, read-out: AVE. ABUTH; for pest or weed control at 280 g/ha: 280 g ae/ha; for pest or weed control at 560 g/ha: 560 g ae/ha
# [9] = compound 1120 g ae/ha, no mixing partner, Trial Bridge 3
# [10] = Trial Bridge 1, compound 1120 g ae/ha, no mixing partner
# [11] = no mixing partner, Trial Bridge 3
# [12] = Trial Bridge 2, compound 560 g ae/ha + Saflufenacil 25 g ai or ae/ha
# [13] = Trial Bridge 2, compound 560 g ae/ha + Saflufenacil 75 g ai or ae/ha
# [14] = Trial Bridge 2, compound 560 g ae/ha + Trifludimoxazin 50 g ai or ae/ha
# [15] = Trial Bridge 2, compound 1120 g ae/ha + Saflufenacil 25 g ai or ae/ha
# [16] = Trial Bridge 2, compound 1120 g ae/ha + Saflufenacil 75 g ai or ae/ha
# [17] = Trial Bridge 2, compound 1120 g ae/ha + Trifludimoxazin 12.5 g ai or ae/ha
# [18] = Trial Bridge 2, compound 1120 g ae/ha + Trifludimoxazin 50 g ai or ae/ha
# [19] = Trial Bridge 1, compound 560 g ae/ha, no mixing partner
# [20] = Trial Bridge 1, compound 560 g ae/ha + Arylex 5 g ai or ae/ha
# [21] = Trial Bridge 1, compound 560 g ae/ha + Mesotrione 150 g ai or ae/ha
# [22] = Trial Bridge 1, compound 1120 g ae/ha + Glufosinate 600 g ai or ae/ha
# [23] = Trial Bridge 1, compound 1120 g ae/ha + Mesotrione 150 g ai or ae/ha
# [24] = Trial Bridge 1, mixing partner none
# [25] = Trial Bridge 2, no mixing partner
smiles,measurement,setting,value
"O=C(COc1ccc(Cl)cc1Cl)NOCc1ccccc1 [Compound D8, N-(Benzyloxy)-2-(2,4-dichlorophenoxy)acetamide]",% Control,Corn (ZEAMX); [9],5%
same,plant injury at 560 g/ha,"Corn (ZEAMX); Trial Bridge 1, no mixing partner",5%
same,plant injury at 1120 g/ha,Corn (ZEAMX); [10],5%
same,plant injury at 560 g/ha,"Corn (ZEAMX); Trial Bridge 2, mixing partner none",5%
same,plant injury at 560 g/ha,Corn (ZEAMX); [11],10%
same,plant injury at 1120 g/ha,Corn (ZEAMX); [9],5%
same,pest or weed control at 280 g/ha,"[1]; 168 h, 7 DAA",68%
same,pest or weed control at 560 g/ha,"[1]; 168 h, 7 DAA",70%
same,pest or weed control at 280 g/ha,"[1]; 336 h, 14 DAA",88%
same,pest or weed control at 560 g/ha,"[1]; 336 h, 14 DAA",85%
same,pest or weed control at 280 g/ha,"[1]; 504 h, 21 DAA",95%
same,pest or weed control at 560 g/ha,"[1]; 504 h, 21 DAA",92%
same,pest or weed control at 280 g/ha,"[2]; 168 h, 7 DAA",68%
same,pest or weed control at 560 g/ha,"[2]; 168 h, 7 DAA",75%
same,pest or weed control at 280 g/ha,"[2]; 336 h, 14 DAA",96%
same,pest or weed control at 560 g/ha,"[2]; 336 h, 14 DAA",95%
same,pest or weed control at 280 g/ha,"[2]; 504 h, 21 DAA",99%
same,pest or weed control at 560 g/ha,"[2]; 504 h, 21 DAA",99%
same,"TGA Data (rate of weight loss, volatility)",[3],0.04 µg/min
same,% Control,[4]; [12],100%
same,% Control,[4]; [13],100%
same,% Control,"[4]; Trial Bridge 2, compound 560 g ae/ha + Trifludimoxazin 12.5 g ai or ae/ha",100%
same,% Control,[4]; [14],100%
same,% Control,[4]; [15],100%
same,% Control,[4]; [16],100%
same,% Control,[4]; [17],100%
same,% Control,[4]; [18],100%
same,% Control,"[4]; Trial Bridge 3, compound 560 g ae/ha + Sulfentrazone 130 g ai/ha",100%
same,% Control,"[4]; Trial Bridge 3, compound 560 g ae/ha + Sulfentrazone 347 g ai/ha",100%
same,% Control,"[4]; Trial Bridge 3, compound 1120 g ae/ha + Sulfentrazone 130 g ai/ha",100%
same,pest or weed control at 560 g/ha,"[4]; Trial Bridge 2, compound 560 g ae/ha, no mixing partner",98%
same,pest or weed control at 1120 g/ha,"[4]; Trial Bridge 2, compound 1120 g ae/ha, no mixing partner",100%
same,pest or weed control at 560 g/ha,"[4]; Trial Bridge 3, compound 560 g ae/ha, no mixing partner",100%
same,pest or weed control at 1120 g/ha,"[4]; Trial Bridge 3, compound 1120 g ae/ha, no mixing partner",100%
same,pest or weed control at 560 g/ha,[4]; [19],95%
same,pest or weed control at 1120 g/ha,[4]; [10],100%
same,% Control,[4]; [20],100%
same,% Control,[4]; [21],100%
same,% Control,[4]; [19],95%
same,% Control,[4]; [22],100%
same,% Control,[4]; [23],100%
same,pest or weed control at 280 g/ha,"[5]; 168 h, 7 DAA",68%
same,pest or weed control at 560 g/ha,"[5]; 168 h, 7 DAA",75%
same,pest or weed control at 280 g/ha,"[5]; 336 h, 14 DAA",85%
same,pest or weed control at 560 g/ha,"[5]; 336 h, 14 DAA",85%
same,pest or weed control at 280 g/ha,"[5]; 504 h, 21 DAA",73%
same,pest or weed control at 560 g/ha,"[5]; 504 h, 21 DAA",83%
same,pest or weed control at 280 g/ha,"[6]; 168 h, 7 DAA",63%
same,pest or weed control at 560 g/ha,"[6]; 168 h, 7 DAA",63%
same,pest or weed control at 280 g/ha,"[6]; 336 h, 14 DAA",65%
same,pest or weed control at 560 g/ha,"[6]; 336 h, 14 DAA",83%
same,pest or weed control at 280 g/ha,"[6]; 504 h, 21 DAA",75%
same,pest or weed control at 560 g/ha,"[6]; 504 h, 21 DAA",97%
same,% Control,"Velvetleaf (ABUTH); compound 560 g ae/ha + Sulfentrazone 130 g ai/ha, Trial Bridge 3",100%
same,% Control,"Velvetleaf (ABUTH); compound 1120 g ae/ha + Sulfentrazone 130 g ai/ha, Trial Bridge 3",100%
same,% Control,"Velvetleaf (ABUTH); compound 1120 g ae/ha + Sulfentrazone 347 g ai/ha, Trial Bridge 3",100%
same,pest or weed control at 560 g/ha,Velvetleaf (ABUTH); [11],90%
same,pest or weed control at 1120 g/ha,Velvetleaf (ABUTH); [11],95%
same,pest or weed control at 560 g/ha,Velvetleaf (ABUTH); [24],100%
same,pest or weed control at 1120 g/ha,Velvetleaf (ABUTH); [24],100%
same,pest or weed control at 560 g/ha,Velvetleaf (ABUTH); [25],100%
same,pest or weed control at 1120 g/ha,Velvetleaf (ABUTH); [25],100%
same,% Control,Velvetleaf (ABUTH); [20],100%
same,% Control,"Velvetleaf (ABUTH); Trial Bridge 1, compound 560 g ae/ha + Glyphosate 1120 g ai or ae/ha",100%
same,% Control,Velvetleaf (ABUTH); [21],100%
same,% Control,"Velvetleaf (ABUTH); Trial Bridge 1, compound 560 g ae/ha + diclosulam 35 g ai or ae/ha",100%
same,% Control,"Velvetleaf (ABUTH); Trial Bridge 1, compound 1120 g ae/ha + Arylex 5 g ai or ae/ha",100%
same,% Control,Velvetleaf (ABUTH); [22],100%
same,% Control,"Velvetleaf (ABUTH); Trial Bridge 1, compound 1120 g ae/ha + Glyphosate 1120 g ai or ae/ha",100%
same,% Control,Velvetleaf (ABUTH); [23],100%
same,% Control,"Velvetleaf (ABUTH); Trial Bridge 1, compound 1120 g ae/ha + diclosulam 35 g ai or ae/ha",100%
same,% Control,Velvetleaf (ABUTH); [12],100%
same,% Control,Velvetleaf (ABUTH); [13],100%
same,% Control,Velvetleaf (ABUTH); [14],100%
same,% Control,Velvetleaf (ABUTH); [15],100%
same,% Control,Velvetleaf (ABUTH); [16],100%
same,% Control,Velvetleaf (ABUTH); [17],100%
same,% Control,Velvetleaf (ABUTH); [18],100%
same,pest or weed control at 280 g/ha,"[7]; 168 h, 7 DAA",70%
same,pest or weed control at 560 g/ha,"[7]; 168 h, 7 DAA",73%
same,pest or weed control at 280 g/ha,"[7]; 336 h, 14 DAA",85%
same,pest or weed control at 560 g/ha,"[7]; 336 h, 14 DAA",88%
same,pest or weed control at 280 g/ha,"[7]; 504 h, 21 DAA",88%
same,pest or weed control at 560 g/ha,"[7]; 504 h, 21 DAA",93%
same,pest or weed control at 280 g/ha,"[8]; 168 h, 7 DAA",83%
same,pest or weed control at 560 g/ha,"[8]; 168 h, 7 DAA",83%
same,pest or weed control at 280 g/ha,"[8]; 336 h, 14 DAA",93%
same,pest or weed control at 560 g/ha,"[8]; 336 h, 14 DAA",91%
same,pest or weed control at 280 g/ha,"[8]; 504 h, 21 DAA",99%
same,pest or weed control at 560 g/ha,"[8]; 504 h, 21 DAA",96%
